Laboratory results: patent US7291641B2, “Derivatives of heterocycles with 5 members, their preparation and their use as medicaments” (Societe de Conseils de Recherches et d'Applications …, priority 1999, dated 2007)
Structures can show the parent of a compound that is named as a salt.

| Structure (SMILES) | melting point [°C] |
| --- | --- |
| CCCCCCC(N)c1nc(-c2ccccc2Cl)c[nH]1 (racemic) (as salt: hydrochloride) [Example 221, (R,S)-1-[4-(2-chlorophenyl)-1H-imidazol-2-yl]-1-heptanamine] | 138 to 140 |
| CCCCCCC(N)c1nc(-c2ccc(Cl)c(Cl)c2)c[nH]1 (racemic) (as salt: hydrochloride) [Example 231, (R,S)-1-[4-(3,4-dichlorophenyl)-1H-imidazol-2-yl]-1-heptanamine] | 148 to 150 |
| CC(C)CCCC(N)c1nc(-c2cccc(Br)c2)c[nH]1 (racemic) (as salt: hydrochloride) [Example 233, (R,S)-1-[4-(3-bromophenyl)-1H-imidazol-2-yl]-5-methyl-1-hexanamine] | 200 to 202 |
| CCCCCCC(NC1CCCCC1)c1nc(-c2ccc(Cl)c(Cl)c2)c[nH]1 (racemic) (as salt: hydrochloride) [Example 250, (R,S)-N-{1-[4-(3,4-dichlorophenyl)-1H-imidazol-2-yl]heptyl}-cyclohexanamine] | 194 |
| NC(Cc1c[nH]c2ccc(F)cc12)c1nc(-c2ccc(F)cc2)c[nH]1 (racemic) (as salt: hydrochloride) [Example 253, (R,S)-2-(5-fluoro-1H-indol-3-yl)-1-[4-(4-fluorophenyl)-1H-imidazol-2-yl]ethylamine] | 220 to 222 |
| Fc1ccc(-c2c[nH]c(C(Cc3c[nH]c4ccc(F)cc34)NC3CCC3)n2)cc1 (racemic) (as salt: hydrochloride) [Example 256, (R,S)-N-{2-(5-fluoro-1H-indol-3-yl)-1-[4-(4-fluorophenyl)-1H-imidazol-2-yl]ethyl}cyclobutanamine] | 180 to 190 |
| CC(C)CCC(NC1CCCCC1)c1nc(-c2ccc(F)cc2)c[nH]1 (racemic) (as salt: hydrochloride) [Example 257, (R,S)-N-{1-[4-(4-fluorophenyl)-1H-imidazol-2-yl]4-methylpentyl}-cyclohexanamine] | 230 to 232 |
| CC(C)CCCC(NC1CCCCC1)c1nc(-c2cccc(Br)c2)c[nH]1 (racemic) (as salt: hydrochloride) [Example 272, (R,S)-N-{1-[4-(3-bromophenyl)-1H-imidazol-2-yl]-5-methylhexyl}-cyclohexanamine] | 216.7 |
| CCCCC(NC(=O)OC(C)(C)C)c1nc(-c2ccc(-c3ccccc3)cc2)c[nH]1 (racemic) [Example 59, (R,S)-4-(2-{1-[(tert-butoxycarbonyl)amino]pentyl}-1H-imidazol-4-yl)-1,1′-biphenyl] | 172 to 176 |
| Fc1ccc2c(CC(NCc3ccccc3)c3nc(-c4ccccc4)c[nH]3)c[nH]c2c1 (racemic) [Example 105, (R,S)-N-benzyl-2-(6-fluoro-1H-indol-3-yl)-1-(4-phenyl-1H-imidazol-2-yl)ethanamine] | 98 to 100 |
| c1ccc(CNC(c2ccccc2)c2nc(-c3ccccc3)c[nH]2)cc1 (racemic) [Example 133, (R,S)-N-benzyl(phenyl)(4-phenyl-1H-imidazol-2-yl)methanamine] | 144 to 146 |
| Fc1ccc(-c2c[nH]c(C(CCCC(F)(F)F)NC3CCCCC3)n2)cc1 (racemic) [Example 136, (R,S)-N-{5,5,5-trifluoro-1-[4-(4-fluorophenyl)-1H-imidazol-2-yl]pentyl}cyclohexanamine] | 220 |
| CCCCC(NC(=O)OC(C)(C)C)c1nc(-c2ccccc2)c[nH]1 (racemic) [Example 174, tert-butyl (R,S)-1-(4-phenyl-1H-imidazol-2-yl)pentylcarbamate] | 126 |
| CCCCCCC(NC(=O)OC(C)(C)C)c1nc(-c2ccccc2OC)c[nH]1 (racemic) [Example 183, tert-butyl (R,S)-1-[4-(2-methoxyphenyl)-1H-imidazol-2-yl]heptylcarbamate] | 64 to 65 |
| CCCCCCC(NC(=O)OC(C)(C)C)c1nc(-c2ccc(-c3ccccc3)cc2)c[nH]1 (racemic) [Example 192, (R,S)-4-(2-{1-[(tert-butoxycarbonyl)amino]heptyl}-1H-imidazol-4-yl)-1,1′-biphenyl] | 142 to 144 |
| Fc1ccc(-c2c[nH]c(C(NC3CCC3)C3CCCC3)n2)cc1 (racemic) [Example 274, (R,S)-N-{cyclopentyl[4-(4-fluorophenyl)-1H-imidazol-2-yl]methyl}cyclobutanamine] | 146 to 148 |
| C#CCN(C)Cc1nc(-c2cc(C(C)(C)C)c(O)c(C(C)(C)C)c2)cs1 [Example 2, 2,6-di(tert-butyl)-4-(2-{[methyl(2-propynyl)amino]methyl}-1,3-thiazol-4-yl)phenol] | 210 to 215 |

Results, then the compound that gave them:

| melting point [°C] | Structure (SMILES) |
| --- | --- |
| 192 | CCCCCCC(N)c1nc(-c2ccc(N(CC)CC)cc2)c[nH]1 (racemic) (as salt: hydrochloride) [Example 218, (R,S)-4-[2-(1-aminoheptyl)-1H-imidazol-4-yl]-N,N-diethylaniline] |
| 148 to 150 | CCCCCCC(N)c1nc(-c2ccc(F)cc2)c[nH]1 (racemic) (as salt: hydrochloride) [Example 220, (R,S)-1-[4-(4-fluorophenyl)-1H-imidazol-2-yl]-1-heptanamine] |
| 170 | CCCCCCC(NCc1ccccc1)c1nc(-c2ccc(N(CC)CC)cc2)c[nH]1 (racemic) (as salt: hydrochloride) [Example 230, (R,S)-N-benzyl-N-(1-{4-[4-(diethylamino)phenyl]-1H-imidazol-2-yl}heptyl)amine] |
| 168 to 170 | CCCCCCC(NC1CCCCC1)c1nc(-c2ccc(-c3ccccc3)cc2)c[nH]1 (racemic) (as salt: hydrochloride) [Example 252, (R,S)-N-[1-(4-[1,1′-biphenyl]-4-yl-1H-imidazol-2-yl)heptyl]-cyclohexanamine] |
| 142 to 144 | CCCCCCC(NCC1CCCCC1)c1nc(-c2ccccc2)c[nH]1 (racemic) (as salt: hydrochloride) [Example 263, (R,S) N-(cyclohexylmethyl)-1-(4-phenyl-1H-imidazol-2-yl)-1-heptanamine] |
| 201 to 203 | CCCCC(NCc1ccccc1)c1nc(-c2ccc(-c3ccccc3)cc2)c[nH]1 (racemic) [Example 60, (R,S)—N-benzyl-1-(4-[1,1′-biphenyl]4-yl-1H-imidazol-2-yl)-1-pentanamine] |
| 140 to 142 | CCCCCCNC(CCCCCC)c1nc(-c2ccccc2)c[nH]1 (racemic) [Example 64, (R,S)-N-hexyl-1-(4-phenyl-1H-imidazol-2-yl)-1-heptanamine] |
| 118 to 120 | CCCCCCC(NCCCCC)c1nc(-c2ccccc2)c[nH]1 (racemic) [Example 75, (R,S)-N-pentyl-1-(4-phenyl-1H-imidazol-2-yl)-1-heptanamine] |
| 68 to 70 | CCCCCCC(NC1CCCCC1)c1nc(-c2ccccc2)c[nH]1 (racemic) [Example 76, (R,S)-N-[1-(4-phenyl-1H-imidazol-2-yl)heptyl]cyclohexanamine] |
| 192 to 194 | CCCCCCC(NCc1ccccc1)c1nc(-c2ccc(Cl)c(Cl)c2)c[nH]1 (racemic) [Example 77, (R,S)-N-benzyl-1-[4-(3,4-dichlorophenyl)-1H-imidazol-2-yl]-1-heptanamine] |
| 160 to 162 | CCCCCCC(NCc1ccccc1)c1nc(-c2ccccc2)c[nH]1 (racemic) [Example 145, (R,S)-N-benzyl-1-(4-phenyl-1H-imidazol-2-yl)-1-heptanamine] |
| 200 to 202 | CCCCC(NCc1ccccc1)c1nc(-c2ccccc2)c[nH]1 (racemic) [Example 186, (R,S)-N-benzyl-1-(4-phenyl-1H-imidazol-2-yl)-1-pentanamine] |
| 100 to 102 | CCCCCCC(NCc1ccccc1)c1nc(-c2ccc(-c3ccccc3)cc2)c[nH]1 (racemic) [Example 195, (R,S)-N-benzyl-1-(4-[1,1′-biphenyl]-4-yl-1H-imidazol-2-yl)-1-heptanamine] |
| 155 to 157 | CCCCCCC(NCc1ccccc1)c1nc(-c2ccccc2OC)c[nH]1 (racemic) [Example 201, (R,S)-N-benzyl-1-[4-(2-methoxyphenyl)-1H-imidazol-2-yl]-1-heptanamine] |
| 192 to 194 | CCCCCC(NCc1ccccc1)c1nc(-c2ccccc2)c[nH]1 (racemic) [Example 202, (R,S)-N-benzyl-1-(4-phenyl-1H-imidazol-2-yl)-1-hexanamine] |
| 141 to 142 | CCCCCCC(NCc1ccccc1)c1nc(-c2cccc(OC)c2)c[nH]1 (racemic) [Example 216, (R,S)-N-benzyl-1-[4-(3-methoxyphenyl)-1H-imidazol-2-yl]-1-heptanamine] |
| 188 to 189 | CCCCCCC(NCc1ccccc1)c1nc(-c2ccc(C#N)cc2)c[nH]1 (racemic) [Example 217, (R,S)-4-{2-[1-(benzylamino)heptyl]-1H-imidazol-4-yl}benzonitrile] |
| 94 to 98 | CCCCCCC(NCCC)c1nc(-c2ccccc2)c[nH]1 (racemic) [Example 224, (R,S)-N-[1-(4-phenyl-1H-imidazol-2-yl)heptyl]-N-propylamine] |
| 126 to 128 | CCCCCCC(NCc1ccc(OC)cc1)c1nc(-c2ccccc2)c[nH]1 (racemic) [Example 227, (R,S)-N-(4-methoxybenzyl)-1-(4-phenyl-1H-imidazol-2-yl)-1-heptanamine] |
| 92 to 94 | CC(C)CCCC(NCc1ccccc1)c1nc(-c2cccc(Br)c2)c[nH]1 (racemic) [Example 235, (R,S)-N-benzyl-1-[4-(3-bromophenyl)-1H-imidazol-2-yl]-5-methyl-1-hexanamine] |
| 148 to 150 | CCCCCCC(NC1CCC1)c1nc(-c2ccccc2)c[nH]1 (racemic) [Example 240, (R,S)-N-[1-(4-phenyl-1H-imidazol-2-yl)heptyl]cyclobutanamine] |
| 114 to 116 | CCCCCCC(NC(C)C)c1nc(-c2ccccc2)c[nH]1 (racemic) [Example 248, (R,S)-N-isopropyl-N-[1-(4-phenyl-1H-imidazol-2-yl)heptyl]amine] |
